Reference: ChEMBL document CHEMBL1201862, “PubChem BioAssay data set” (2004)
The source made the active and inactive calls.

Legend:
[1] = A Cell Based Secondary Assay To Explore Cytotoxicity of Compounds that Sensitize Mycobacterium Tuberculosis to Beta-Lactam Antibiotics.; assay type: functional
[2] = target: Mothers against decapentaplegic homolog 3 (Homo sapiens, UniProt P84022); experiment: Smad3 binding inhibitors, lysate ELISA, dose response, cell lysate, secondary confirmation, chemiluminescent ELISA, HEK293 lysate (AID 1058); assay type: functional
Chain of Mothers against decapentaplegic homolog 3 (P84022 whole entry): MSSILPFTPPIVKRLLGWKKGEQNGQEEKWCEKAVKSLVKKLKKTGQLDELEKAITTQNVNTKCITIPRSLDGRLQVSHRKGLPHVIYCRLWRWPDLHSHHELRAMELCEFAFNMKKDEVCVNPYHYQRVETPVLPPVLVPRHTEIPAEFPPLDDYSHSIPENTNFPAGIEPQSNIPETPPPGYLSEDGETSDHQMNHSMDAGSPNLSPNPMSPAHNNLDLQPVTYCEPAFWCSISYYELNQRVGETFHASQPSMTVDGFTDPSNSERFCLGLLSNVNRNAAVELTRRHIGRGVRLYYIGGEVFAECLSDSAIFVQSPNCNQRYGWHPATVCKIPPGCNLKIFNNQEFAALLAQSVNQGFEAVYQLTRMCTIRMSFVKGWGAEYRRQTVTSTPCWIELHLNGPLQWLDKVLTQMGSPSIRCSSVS

[3] = target: Neuropeptide Y receptor type 2 (Homo sapiens, UniProt P49146); assay type: functional, cell-based;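 further: HEK293 cells expressing the receptor and a CNG channel; stimulus was NPY near EC95 followed by isoproterenol to raise cAMP; antagonist potency measured as restoring cAMP signal that NPY suppresses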
Chain of Neuropeptide Y receptor type 2 (P49146 whole entry): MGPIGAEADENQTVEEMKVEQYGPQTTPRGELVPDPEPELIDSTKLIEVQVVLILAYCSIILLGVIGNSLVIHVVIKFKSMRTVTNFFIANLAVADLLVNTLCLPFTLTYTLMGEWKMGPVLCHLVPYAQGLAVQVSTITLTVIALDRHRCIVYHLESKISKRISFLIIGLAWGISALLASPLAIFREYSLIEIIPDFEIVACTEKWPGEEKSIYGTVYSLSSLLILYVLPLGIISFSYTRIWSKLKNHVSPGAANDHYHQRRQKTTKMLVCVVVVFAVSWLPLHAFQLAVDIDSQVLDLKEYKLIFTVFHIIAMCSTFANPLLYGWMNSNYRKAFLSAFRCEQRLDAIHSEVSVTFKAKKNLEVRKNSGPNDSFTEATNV

[4] = target: Neuropeptide Y receptor type 1 (Homo sapiens, UniProt P25929); assay type: functional;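 further: HEK293 cells with a CNG channel challenged with NPY then isoproterenol; potency as antagonist that reverses NPY suppression of cAMP signal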
Chain of Neuropeptide Y receptor type 1 (P25929 whole entry): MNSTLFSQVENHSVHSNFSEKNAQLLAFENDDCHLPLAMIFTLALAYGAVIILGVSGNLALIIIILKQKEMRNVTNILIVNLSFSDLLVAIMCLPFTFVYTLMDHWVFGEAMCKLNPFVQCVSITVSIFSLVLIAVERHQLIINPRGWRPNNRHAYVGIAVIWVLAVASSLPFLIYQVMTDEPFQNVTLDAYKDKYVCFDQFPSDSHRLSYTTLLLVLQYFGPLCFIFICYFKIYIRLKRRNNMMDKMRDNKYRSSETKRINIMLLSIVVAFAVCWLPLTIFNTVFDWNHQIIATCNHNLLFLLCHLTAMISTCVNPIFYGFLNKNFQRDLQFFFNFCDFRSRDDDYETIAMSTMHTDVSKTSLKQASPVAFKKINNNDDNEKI

[5] = target: Sphingosine 1-phosphate receptor 2 (Homo sapiens, UniProt O95136); experiment: Dose Response Cell Based Assay for Agonists of the S1P2 Receptor of Purchased Analogues. [Related pubchem assays: 729, 843, 854, 736 ]; assay type: functional
Chain of Sphingosine 1-phosphate receptor 2 (O95136 whole entry): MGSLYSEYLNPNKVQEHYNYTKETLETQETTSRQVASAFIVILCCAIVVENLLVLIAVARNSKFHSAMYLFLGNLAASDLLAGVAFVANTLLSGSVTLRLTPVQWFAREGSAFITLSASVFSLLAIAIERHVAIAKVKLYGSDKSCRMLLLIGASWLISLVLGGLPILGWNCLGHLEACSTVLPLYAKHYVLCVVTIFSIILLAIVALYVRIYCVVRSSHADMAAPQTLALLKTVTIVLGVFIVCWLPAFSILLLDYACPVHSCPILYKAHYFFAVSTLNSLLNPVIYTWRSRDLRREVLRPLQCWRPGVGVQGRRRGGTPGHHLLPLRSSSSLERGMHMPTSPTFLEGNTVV

[6] = Luminescence Cell-Based Dose Confirmation HTS to Identify Inhibitors of Platelet Dense Granule Release. [Related pubchem assays: 1663 (Primary HTS), 1678 (Summary of Project)]; assay type: functional
[7] = target: T1, Luciferin 4-monooxygenase (Photinus pyralis, UniProt P08659); experiment: firefly luciferase enzyme inhibitors, dose response, biochemical, luminescence (AID 1891)
T1 sequence (P08659 whole entry): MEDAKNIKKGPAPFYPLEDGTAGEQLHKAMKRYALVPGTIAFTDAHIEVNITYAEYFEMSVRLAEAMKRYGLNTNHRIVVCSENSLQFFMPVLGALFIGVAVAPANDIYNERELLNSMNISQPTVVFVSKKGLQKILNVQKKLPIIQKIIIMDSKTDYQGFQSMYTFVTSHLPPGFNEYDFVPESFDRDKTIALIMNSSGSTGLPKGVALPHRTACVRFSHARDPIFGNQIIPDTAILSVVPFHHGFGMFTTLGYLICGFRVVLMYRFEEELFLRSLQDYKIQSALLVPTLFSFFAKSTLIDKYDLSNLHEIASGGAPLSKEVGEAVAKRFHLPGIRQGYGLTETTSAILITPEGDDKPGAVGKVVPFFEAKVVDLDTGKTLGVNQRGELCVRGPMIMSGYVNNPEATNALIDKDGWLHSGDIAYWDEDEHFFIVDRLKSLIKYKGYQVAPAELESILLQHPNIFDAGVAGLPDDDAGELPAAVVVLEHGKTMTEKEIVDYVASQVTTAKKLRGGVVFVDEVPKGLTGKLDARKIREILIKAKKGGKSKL

HT-1080 = experiment: cytotoxicity in HT1080 fibrosarcoma cells, cell-based, fluorescence readout (AID 620); assay type: functional; conditions: Homo sapiens
Protein skinhead-1 = target: T2, Protein skinhead-1 (Caenorhabditis elegans, UniProt P34707); assay type: functional
T2 sequence (P34707 whole entry): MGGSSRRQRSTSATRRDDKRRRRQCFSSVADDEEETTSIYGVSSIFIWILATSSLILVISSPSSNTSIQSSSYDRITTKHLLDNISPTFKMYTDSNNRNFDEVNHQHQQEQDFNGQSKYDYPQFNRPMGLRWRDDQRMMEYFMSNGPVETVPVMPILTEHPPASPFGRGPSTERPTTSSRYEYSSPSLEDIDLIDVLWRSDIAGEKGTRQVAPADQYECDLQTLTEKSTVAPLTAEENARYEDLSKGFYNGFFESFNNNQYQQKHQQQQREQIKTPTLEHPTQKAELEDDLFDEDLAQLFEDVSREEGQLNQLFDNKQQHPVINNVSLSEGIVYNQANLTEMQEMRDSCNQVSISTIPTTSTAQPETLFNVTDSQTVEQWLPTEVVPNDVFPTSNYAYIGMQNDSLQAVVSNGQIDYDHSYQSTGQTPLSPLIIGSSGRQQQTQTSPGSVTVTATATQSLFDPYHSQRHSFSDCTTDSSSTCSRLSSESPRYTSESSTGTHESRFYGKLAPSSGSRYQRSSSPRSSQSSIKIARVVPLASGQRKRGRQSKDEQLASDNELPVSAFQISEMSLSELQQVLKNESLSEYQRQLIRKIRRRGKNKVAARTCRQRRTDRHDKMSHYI

[8] = target: T1, Luciferin 4-monooxygenase; experiment: Counter Screen for Luciferase-based Assay Positives. [Related pubchem assays: 620, 618, 411 ]
[9] = inhibitors of firefly luciferase expression or activity, dose response, H4 neuroglioma cells, luminescence (AID 1990); assay type: functional, cell-based
Cytochrome P450 2D6 = Cytochrome P450 2D6 (Homo sapiens, UniProt P10635);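 further: CYP2D6 member of a cytochrome P450 panel assay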
[10] = Counterscreen for AddAB inhibitors: absorbance-based bacterial cell-based high throughput dose response assay for inhibitors of bacterial viability. [Related pubchem assays (depositor defined):AID435030, AID449728, AID449731, AID488942, AID488955, AID488956]; assay type: functional
[11] = NIH-3T3 fibroblast cytotoxicity, dose response, cytotoxicity control, cell-based, fluorescence, Alamar Blue, secondary assay (AID 2327); assay type: functional;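 further: NIH-3T3 mouse fibroblasts cultured with fluconazole at 8 µg/mL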
Exodeoxyribonuclease V = Exodeoxyribonuclease V (Escherichia coli (strain K12), UniProt P04993+P07648+P08394); experiment: E. coli RecBCD inhibitors, dose response, counter-screen for AddAB inhibitor project, absorbance, V66 E. coli, mutant T4 phage (AID 492957); assay type: functional, cell-based, Escherichia coli str. K-12 substr. MG1655
Chain of Exodeoxyribonuclease V (P04993 whole entry): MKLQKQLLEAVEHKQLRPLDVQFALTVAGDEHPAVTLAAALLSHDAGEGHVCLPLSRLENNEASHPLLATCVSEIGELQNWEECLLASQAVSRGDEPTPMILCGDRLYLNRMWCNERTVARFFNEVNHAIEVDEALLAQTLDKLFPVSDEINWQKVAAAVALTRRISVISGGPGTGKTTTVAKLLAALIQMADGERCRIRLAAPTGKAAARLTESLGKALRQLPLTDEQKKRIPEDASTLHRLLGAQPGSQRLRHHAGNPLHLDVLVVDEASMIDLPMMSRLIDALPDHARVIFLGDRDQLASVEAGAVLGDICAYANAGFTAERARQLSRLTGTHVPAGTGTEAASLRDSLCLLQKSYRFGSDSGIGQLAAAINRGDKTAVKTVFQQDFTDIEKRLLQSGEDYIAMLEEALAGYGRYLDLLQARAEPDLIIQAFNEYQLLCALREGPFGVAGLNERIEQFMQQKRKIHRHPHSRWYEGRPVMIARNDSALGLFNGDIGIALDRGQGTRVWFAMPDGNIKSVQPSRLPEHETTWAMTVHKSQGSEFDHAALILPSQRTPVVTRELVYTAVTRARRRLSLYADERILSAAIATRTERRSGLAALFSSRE
Chain of Exodeoxyribonuclease V (P07648 whole entry): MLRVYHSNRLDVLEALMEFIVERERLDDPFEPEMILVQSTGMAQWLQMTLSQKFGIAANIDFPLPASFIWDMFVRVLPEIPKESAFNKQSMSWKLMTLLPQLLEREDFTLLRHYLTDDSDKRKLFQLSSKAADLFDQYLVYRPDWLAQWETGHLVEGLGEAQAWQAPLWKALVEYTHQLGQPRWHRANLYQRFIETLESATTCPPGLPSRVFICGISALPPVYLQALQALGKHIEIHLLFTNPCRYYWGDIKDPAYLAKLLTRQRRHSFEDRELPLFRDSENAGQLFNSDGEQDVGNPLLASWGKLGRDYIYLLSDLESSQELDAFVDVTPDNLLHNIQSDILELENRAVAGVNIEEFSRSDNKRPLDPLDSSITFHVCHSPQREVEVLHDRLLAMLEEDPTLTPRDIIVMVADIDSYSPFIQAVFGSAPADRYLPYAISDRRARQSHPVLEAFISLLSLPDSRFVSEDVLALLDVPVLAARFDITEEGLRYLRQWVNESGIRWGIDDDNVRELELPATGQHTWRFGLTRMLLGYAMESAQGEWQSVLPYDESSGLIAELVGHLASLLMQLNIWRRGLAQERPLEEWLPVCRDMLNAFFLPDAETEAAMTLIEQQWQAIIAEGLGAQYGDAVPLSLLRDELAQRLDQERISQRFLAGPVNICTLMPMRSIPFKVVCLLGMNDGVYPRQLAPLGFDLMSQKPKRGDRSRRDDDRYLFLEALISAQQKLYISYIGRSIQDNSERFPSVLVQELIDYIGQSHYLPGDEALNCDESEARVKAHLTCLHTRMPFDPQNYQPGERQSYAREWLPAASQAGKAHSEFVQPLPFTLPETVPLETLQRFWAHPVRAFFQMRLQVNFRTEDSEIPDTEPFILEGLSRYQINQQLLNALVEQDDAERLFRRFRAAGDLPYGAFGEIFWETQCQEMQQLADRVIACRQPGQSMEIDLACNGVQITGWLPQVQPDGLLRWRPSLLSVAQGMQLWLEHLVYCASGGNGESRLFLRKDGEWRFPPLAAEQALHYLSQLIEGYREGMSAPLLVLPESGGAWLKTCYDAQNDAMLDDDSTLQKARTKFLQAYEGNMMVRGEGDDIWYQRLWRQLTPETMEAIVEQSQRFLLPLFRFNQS
Chain of Exodeoxyribonuclease V (P08394 whole entry): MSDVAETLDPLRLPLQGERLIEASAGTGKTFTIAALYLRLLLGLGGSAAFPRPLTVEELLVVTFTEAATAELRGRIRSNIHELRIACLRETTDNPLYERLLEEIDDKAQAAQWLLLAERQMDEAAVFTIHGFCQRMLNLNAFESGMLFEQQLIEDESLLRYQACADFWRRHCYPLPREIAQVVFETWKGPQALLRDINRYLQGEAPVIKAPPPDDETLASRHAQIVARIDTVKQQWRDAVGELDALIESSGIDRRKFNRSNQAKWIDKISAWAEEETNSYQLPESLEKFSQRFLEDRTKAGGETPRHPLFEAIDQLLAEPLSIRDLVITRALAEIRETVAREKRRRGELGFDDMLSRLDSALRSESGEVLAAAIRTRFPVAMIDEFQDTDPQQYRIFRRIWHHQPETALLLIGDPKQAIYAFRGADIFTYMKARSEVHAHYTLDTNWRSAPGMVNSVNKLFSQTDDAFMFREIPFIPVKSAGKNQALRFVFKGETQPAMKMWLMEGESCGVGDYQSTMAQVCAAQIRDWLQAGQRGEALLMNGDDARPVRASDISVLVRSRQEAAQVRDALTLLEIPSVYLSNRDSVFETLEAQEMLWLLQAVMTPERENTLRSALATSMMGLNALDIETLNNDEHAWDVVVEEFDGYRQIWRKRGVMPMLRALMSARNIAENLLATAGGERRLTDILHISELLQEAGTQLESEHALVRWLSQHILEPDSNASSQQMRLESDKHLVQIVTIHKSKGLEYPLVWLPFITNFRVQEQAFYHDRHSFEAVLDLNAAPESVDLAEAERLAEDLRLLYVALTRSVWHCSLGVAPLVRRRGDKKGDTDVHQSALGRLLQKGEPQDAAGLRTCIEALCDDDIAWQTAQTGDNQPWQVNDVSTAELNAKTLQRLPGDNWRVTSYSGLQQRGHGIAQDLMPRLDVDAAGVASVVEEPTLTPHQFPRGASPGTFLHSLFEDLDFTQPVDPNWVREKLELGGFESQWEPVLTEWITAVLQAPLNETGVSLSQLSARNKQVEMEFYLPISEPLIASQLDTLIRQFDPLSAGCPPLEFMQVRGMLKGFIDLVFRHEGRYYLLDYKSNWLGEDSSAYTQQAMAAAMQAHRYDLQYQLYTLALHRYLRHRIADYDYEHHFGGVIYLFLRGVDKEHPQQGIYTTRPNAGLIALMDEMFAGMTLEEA

[12] = Luminescence Cell-Based Dose Retest to Confirm Inhibitors of Cancer Stem Cells. [Related pubchem assays (depositor defined):AID2717, AID2721]; assay type: functional; conditions: Homo sapiens
[13] = control 3'UTR Renilla luciferase suppression, dose response, counter-screen for Shn3 inhibitor project, cell-based, Clone20-Shn3RL, cherry-picked (AID 624133); assay type: functional
Cytochrome P450 1A2 = target: T3, Cytochrome P450 1A2 (Homo sapiens, UniProt P05177);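 further: PubChem cytochrome P450 panel assay, CYP1A2 panel member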
T3 sequence (P05177 whole entry): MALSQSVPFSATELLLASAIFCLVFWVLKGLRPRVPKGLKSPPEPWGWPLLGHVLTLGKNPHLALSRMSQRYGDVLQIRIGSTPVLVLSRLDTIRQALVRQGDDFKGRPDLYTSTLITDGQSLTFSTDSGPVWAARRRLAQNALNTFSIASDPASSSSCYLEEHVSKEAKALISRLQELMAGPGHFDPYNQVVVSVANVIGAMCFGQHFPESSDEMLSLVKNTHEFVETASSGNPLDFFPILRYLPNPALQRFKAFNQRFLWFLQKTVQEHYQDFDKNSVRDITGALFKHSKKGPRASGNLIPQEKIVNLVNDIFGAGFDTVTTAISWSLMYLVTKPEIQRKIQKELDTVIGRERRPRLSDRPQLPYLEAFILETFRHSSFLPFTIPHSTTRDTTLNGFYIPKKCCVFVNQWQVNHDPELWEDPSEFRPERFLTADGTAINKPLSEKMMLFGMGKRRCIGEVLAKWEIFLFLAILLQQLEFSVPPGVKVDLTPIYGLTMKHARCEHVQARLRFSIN

[14] = Shn3 3'UTR reporter inhibitors, dose response, cell-based, Clone20 osteoblasts, firefly luciferase, cherry-picked (AID 624132); assay type: functional;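 further: firefly luciferase luminescence from reporter carrying the Shn3 3'UTR in osteoblasts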
[15] = target: Voltage-gated inwardly rectifying potassium channel KCNH2 (Homo sapiens, UniProt Q12809); experiment: hERG protection from proarrhythmic block, potency, dose response, cell-based, thallium flux (AID 2121); assay type: ADME
[16] = Luminescence Cell-Based Dose Response HTS to Identify Inhibitors of 5'UTR Stem-Loop Driven Prion Protein mRNA Translation in H4 Neuroglioblastoma Cells. [Related pubchem assays: 1827 (Project Summary), 1813 (Primary HTS)]; assay type: functional
[17] = C. albicans growth with fluconazole, confirmation, fluorescence, retest (AID 2467); assay type: functional, cell-based
[18] = inhibitors of SNCA 5'UTR-driven reporter translation, confirmation, H4 neuroglioma cells, luminescence (AID 1988); assay type: functional, cell-based
[19] = HepG2 cell cytotoxicity, dose response, cytotoxicity control for Shn3 inhibitor project, CellTiter-Glo, cherry-picked (AID 624134); assay type: functional, cell-based

COc1ccc2c(c1)c(C(C)=O)c(C)n2-c1ccccc1
CC50 [1]: > 40 µM (active)

Oc1cc2c(cc1C(c1ccc(Cl)cc1)N1CCOCC1)OCO2 (centres undefined)
IC50 [2]: 10.3 µM (not active)

COc1ccc(-c2nc(C#N)c(NC(C)c3ccccc3)o2)cc1OC (centres undefined)
IC50 [3]: 3.55 µM (active)
IC50 [4]: 7.77 µM (active)

Cc1cc(C(=O)CSc2ncccn2)c(C)n1Cc1ccccc1
EC50 [5]: > 30 µM (not active)

Nc1ccc2nc(-c3ccccc3)sc2c1
EC50 [6]: 2.44 µM (active)
EC50 [7]: 0.958 µM (active)
EC50 (HT-1080): > 50 µM (not active)
IC50 (Protein skinhead-1): 55.9 µM (inactive)
EC50 [8]: 23.5 µM (active)

Cc1cc([N+](=O)[O-])ccc1-c1ccc(C2Nc3ccccc3C(=O)N2O)o1 (centres undefined)
EC50 [9]: 10.3 µM (active)
AC50 (Cytochrome P450 2D6): 20 µM (inconclusive)
IC50 [10]: > 119 µM (inactive)
EC50 [11]: > 160 µM (inconclusive)
IC50 (Exodeoxyribonuclease V): > 119 µM (inactive)
AC50 [12]: 5.3 µM (active)
AC50 [13]: 11.3 µM (active)
AC50 (Cytochrome P450 1A2): 25.1 µM (inconclusive)
AC50 [14]: 3.32 µM (active)
EC50 [15]: 2.58 µM (active)
EC50 [16]: 10.4 µM (active)
EC50 [17]: 1.31 µM (active)
EC50 [18]: 8.61 µM (active)
AC50 [19]: 32.9 µM (active)
